According to patent publication US11571413B2, “Nicotinamide riboside treatments of domesticated meat animals” (Kansas State University Research Foundation, priority 2017, dated 2023):

Tests used:
[1] = system: growing pigs; assay: Longissimus lumborum muscle fiber distribution and succinate dehydrogenase staining (Example III); type: in vivo, pig; details: 30 mg/kg BW, 7 days; numerical
Method: Nine growing pigs were blocked by bodyweight (BW) and placed in metabolism crates. After a 3-day acclimation period, pigs within each BW block were randomly assigned to a treatment (n=3 pigs/treatment). Treatments comprised pigs supplemented 0, 15, or 30 mg/kg BW NR for 7 days. Pigs were allowed ad libitum access to a standard growing diet and water. Treatments were administered daily at 8 a.m. by mixing NR in 20 mL of Karo® dark syrup and orally drenching the pigs. On day 0 and 3 of the trial, muscle biopsies of the LL were taken for NAD+ analysis using standard procedures. At day 7, pigs were transported to the Kansas State University Meats Laboratory and euthanized by a captive penetrating bolt to the brain, followed by exsanguination. Following harvest procedures, 3 g of the LL were collected for NAD+ analysis. Twenty-four hours after harvest, the whole LL not sampled at harvest was removed from the carcass and aged 10 days. After aging, the LL was cut into 6 chops for retail color stability analysis, including 6-day surface oxy- and metmyoglobin percentage, 6-day objective and subjective color panel evaluation, and day 4 and 6 metmyoglobin reducing ability (MRA).

[2] = system: fertilized broiler eggs; assay: In ovo NR injection at 11 days of incubation: chick weight and Pectoralis major measurements (Example 1); type: in vivo, chicken
Method: At 11-days of incubation, 60 fertilized broiler eggs were randomly assigned to completely randomized design with a 2×2 factorial arrangement. Factor 1 comprised treatment, with eggs injected with 100 μl of 0.9% sterile saline solution (NRNeg) or 250 mM NR in sterile saline (NRPos). Factor 2 comprised injection location, with treatments injected into the yolk or albumen. Eggs were incubated at 37±3° C. and a relative humidity of 40±2% for 7 days. Humidity was increased to 60±2% at the same temperature for the final 3 days of incubation. Twenty-four hours after hatching, chicks were euthanized by exposure to CO2 and decapitation. Measurements including chick weight and left Pectoralis major weight, length, and depth were taken for analysis.

[3] = system: finished market barrows; assay: Semitendinosus muscle NAD+ content by HPLC (Example V); type: in vivo, pig; details: 30 mg/kg BW oral daily, 10 days
Method: Fourteen days prior to harvest, 20 finished market barrows (initial body weight 268 pounds) were randomly assigned to 1 of 2 treatments: 0 or 30 mg/kg body weight of nicotinamide riboside, both orally administered daily in 20 ml of Karo® Syrup. Ten days prior to harvest, pigs were restrained via a snare and treatments were administered. On day 7, barrows were subjected to a performance test where they were walked around a track at 0.88 m/s until subjective fatigue was achieved. Three days following the performance test, barrows were harvested and a portion of the semitendinosus muscle was collected within 45 minutes. These samples were analyzed for NAD+ content via HPLC methodology.

[4] = system: Fertilized Cobb 500 broiler eggs; assay: Cyclin D mRNA expression by real-time PCR (second Example VI); type: in vivo, chicken; details: 250, 500 mM or 1 M NR; hatched chicks
Method: The methods of Burnett et al. (2016) were followed with minor modifications. Briefly, nucleic acids were extracted and purified from 200 mg of the left biceps femoris muscle using Trizol (Life Technologies), followed by subjecting the nucleic acids to PureLink™ RNA
Mini Kit (Life Technologies, Carlsbad, Calif.). Total RNA concentration and 260 nm/280 nm ratio were quantified and extractions yielding RNA with a ratio greater than 1.9 were used for real-time PCR analysis. Trace genomic DNA contamination and reverse transcription were conducted on 50 ng of total RNA using a High-Capacity cDNA Reverse Transcription Kit (Life Technologies). Gene specific primers were designed, efficiencies determined, and validated for qPCR (Table 7). Complementary DNA was amplified in duplicate for each sample using PerfeCTa SYBR Green FastMix (Quanta Biosciences, Gaithersburg, Md.) and the appropriate gene specific forward and reverse primers (20 pM) in an Eppendorff Mastercycler realplex2 S PCR System (Eppendorf North America, Hauppauge, N.Y.). Thermal cycling parameters were initial heating at 50° C. for 2 min, denaturing at 95° C. for 10 min, 50 cycles of 15 s at 95.0° C., annealing at 60.5° C. for 30 s, and extension for 20 s at 68.0° C. A final dissociation step was included at 95° C. for 15 s, 60° C. for 30 s, and 95° C. for 15 s. Expression was normalized to 18S ribosomal RNA expression (ΔCt, where Ct refers to the threshold cycle), and calibrated to control chick (0 mM) mRNA expression (ΔΔCt). Gene fold change expression levels were calculated as 2^−ΔΔCt as previously described by Livak and Schmittgen (2001).

[5] = system: finishing barrows; assay: Finishing pig carcass measures and fabrication (Example IV); type: in vivo; details: 10 days
Method: Seven days prior to the beginning of the experiment, 10 finishing barrows (initial BW 111.9±1.6 kg) were assigned to individual pens located at the East Finisher facility of the Kansas State University Swine Teaching and Research Center (Manhattan, Kans.). Each pen was 7.4 m^2 with a slatted floor, contained a nipple waterer and an individual dry feeder that allowed ad libitum access to food and water. Barrows were randomly assigned to 1 of 2 NR treatments, 0 or 30 mg/kg daily of NR mixed in Karo® syrup and administered by oral gavage. Barrows were administered their assigned treatment for 10 days, after which they were harvested under USDA inspection. Twenty-four hours after harvest, carcass measurements were taken by trained personnel, carcasses were fabricated into the 5 major wholesale cuts, and whole-boneless loins were vacuum packaged and aged for 10 days. Loin were cut into 3 chops with chop 1 being used for day-0 metmyoglobin reducing ability (MRA) analysis, chop 2 being used for day-4 MRA and oxygen consumption rate (OCR) analyses, and chop 3 for 8-day objective/subjective color evaluation and MRA and OCR analyses.

[6] = 100 μl 250 mM NR into yolk at 11 d, chicks 24 h after hatching

Question: What does the source list for `NC(=O)c1ccc[n+]([C@@H]2O[C@H](CO)[C@@H](O)[C@H]2O)c1` [Nicotinamide riboside, nicotinamide riboside]?
Answer: Muscle fiber distribution vs 0 mg/kg LL [1]: less type 2B (glycolytic) fibers and more type 1 and 2A (oxidative) fibers; Succinate dehydrogenase staining in type 2B fibers vs other two treatments [1]: more intense staining; Pectoralis major depth vs NRNeg ([2]; 100 μl 250 mM NR at 11 d, treatment main effect (yolk and albumen)): thicker muscles; Chick weight and Pectoralis major weight and length vs NRNeg ([2]; 100 μl 250 mM NR into albumen at 11 d, chicks 24 h after hatching): no differences; Chick weight vs NRNeg [2, 6]: tended to weigh more; Pectoralis major length vs NRNeg [2, 6]: longer; Pectoralis major weight vs NRNeg [2, 6]: weighed more; Increase of NAD+ in the semitendinosus muscle (tendency, P=0.09) [3]: 62%; Cyclin D1 and 2 mRNA expression [4]: no treatment effects; Cyclin D3 mRNA expression, control vs all NR treatments [4]: Control chicks had greater cyclin D3 expression; Greater cyclin D3 mRNA expression of control chicks than NR chicks (average) [4]: 38%; 1st rib subcutaneous fat ([5]; NR 30 mg/kg daily oral gavage): 1.76 cm; 10th rib subcutaneous fat ([5]; NR 30 mg/kg daily oral gavage): 0.95 cm; Carcass fabrication, Belly ([5]; NR 30 mg/kg daily oral gavage): 7.93 kg; Carcass fabrication, Boneless loin ([5]; NR 30 mg/kg daily oral gavage): 10.39 kg; Carcass fabrication, Boston butt ([5]; NR 30 mg/kg daily oral gavage): 3.22 kg; Carcass fabrication, Ham ([5]; NR 30 mg/kg daily oral gavage): 9.63 kg; Carcass fabrication, Picnic shoulder ([5]; NR 30 mg/kg daily oral gavage): 4.42 kg; Carcass weight ([5]; NR 30 mg/kg daily oral gavage): 97.4 kg; Last lumbar subcutaneous fat ([5]; NR 30 mg/kg daily oral gavage): 0.83 cm; Last rib subcutaneous fat ([5]; NR 30 mg/kg daily oral gavage): 0.91 cm; Loin eye area ([5]; NR 30 mg/kg daily oral gavage): 7.3 in²; Marbling (National Pork Producers Council marbling score) ([5]; NR 30 mg/kg, 1 = none and 10 = abundant): 2.4; Color (National Pork Producers Council color score) ([5]; NR 30 mg/kg, 1 = pale pinkish gray to white, 6 = dark purplish red): 3.4
